Results reported in patent publication US5811450A, “Thiepane compounds” (Gilead Sciences, Inc., priority 1996, dated 1998).
Like-named read-outs stand apart in the source and are kept apart here.

Legend:
[1] = target: T1, HIV protease (Human immunodeficiency virus type 1 group M subtype B, UniProt P04585); assay: biochemical
T1 construct: fluorometric method for measurement of HIV-protease (HIV-PR) activity utilizing a synthetic peptide substrate
Description: Compositions to be subjected to enzyme assay are lyophilited and diluted in DMSO to 100-1000 μM. Compositions having apparent IC50 <1 μm are diluted to 100 μM.
The assay is a fluorometric method for measurement of HIV-protease (HIV-PR) activity utilizing a synthetic peptide substrate for HIV-PR based on that described by Matayoshi, E.D.; Wang, G.T.; Krafft, G.A.; and Erickson, J.W.; Science, 1990, 247, 954-958; and Wang, G.T.; Huffker, J.A.; Matayoshi, E.; and Krafft, G.A.; Tetrahedron Lett., 1990, 165 6493-6496.
Buffer: 0.1M sodium acetate
1.0 mM ethylenediaminetetraacetic acid (EDTA)
1.0 mM dithiothreitol (DTT)
10% dimethyl sulfoxide (DMSO)
1 mg/mL bovine serum albumin (BSA) adjusted to pH 4.7
1. Prepare a solution of 2 μM HIV Protease Substrate 1 in the Assay Buffer.
2. Dispense the substrate solution into UV-pass fluorescence cuvettes (1 cm pathlength).
3. Set the excitation and emission monochromators of the spectrofluorimeter to 340 nm and 490 nm, respectively. To obtain the same kinetic constants as reported, cuvettes should be held at 37° C. throughout the assay.
4. Begin each assay by adding a small amount (<3% of the final volume) of HIV-PR-containing solution diluted tin the Assay Buffer.
5. Measure the initial rate of cleavage of fluorogenic substrate by monitoring the increase in fluorescence signal at 490 nm for 5-8 min at 37° C.
(§1) The apparent IC50 and IC50 values reported below in Table 25 were determined using the assays of Example 34 and 35, respectively. The values are indicated as follows: +=10-50 μM, ++2-10 μM, and +++<2 μM.

[2] = system: HIV IIIB; assay: XTT cell culture assay, cells infected with HIV IIIB; assay type: cell-based; conditions: Human immunodeficiency virus 1, IIIB, read-out: Cell Culture IC50
Description: The method of Weislow, O.S.; Kiser, R.; Fine, D.L.; Bader, J.; Shoemaker, R.H.; and Boyd, M.R.; I. Nat. Cancer Institute, 1989, 81(8) 577-586 was applied with the following minor modifications:. Infection of cells with HIV IIIB was performed without polybrene. Cells were distributed to Microtiter wells containing the compound of the invention 4 h after infection with HIV IIIB. 2×XTT was added at 5-6 days post infection. 20 μl 2% Triton X-100 was added 1 hour after XTT addition.
1. Add 4 ml of XTT (5 mg/ml) to 8 ml of Deficient RPMI medium (no phenol red, no serum). Mix briefly at 45° C. to dissolve XTT.
2. Add 800 μl of PMS (0.2 mg/ml) to XTT/RPMI mixture.
3. Remove […] of cell free media from each well of a 96 well plate and replace with 100 μl of the XTT/PMS mixture.
4. Incubate at 37° C. for 1.5-2 h.
5. Read absorbance at 450 nm. Absorbance values are directly proportional to cell viability.
as §1

[3] = HIV protease, fluorogenic peptide substrate, pH 4.7, 37° C., read-out: Apparent Enzyme IC50
[4] = XTT assay, HIV IIIB infected cells, XTT 5-6 days post infection

| SMILES | IC50 [1, 3] | IC50 [2, 4] | further results |
| --- | --- | --- | --- |
| N#Cc1ccccc1O[C@@H]1[C@H](O)[C@@H](O)[C@@H](Oc2ccccc2C#N)C[S@+]([O-])[C@@H]1Cc1ccccc1 [107/8] | 10 to 50 µM | – | – |
| N#Cc1ccc(O[C@@H]2[C@H](O)[C@@H](O)[C@@H](Oc3ccc(C#N)cc3)C[S@@+]([O-])[C@@H]2Cc2ccccc2)cc1 [107/13] | 10 to 50 µM | – | – |
| Cc1nc(COC2C(O)C(O)C(OCc3csc(C)n3)C(Cc3ccccc3)S(=O)(=O)C2Cc2ccccc2)cs1 (centres unmarked) [120/22] | – | 10 to 50 µM | – |
| O=[N+]([O-])c1cccc(COC2C(O)C(O)C(OCc3cccc([N+](=O)[O-])c3)C(Cc3ccccc3)[S+]([O-])C2Cc2ccccc2)c1 (centres unmarked) [120/44] | – | – | IC50 [2]: < 2 µM |
| O=[N+]([O-])c1cccc(COC2C(O)C(O)C(OCc3cccc([N+](=O)[O-])c3)C(Cc3ccccc3)S(=O)(=O)C2Cc2ccccc2)c1 (centres unmarked) [120/45] | – | – | IC50 [2]: < 2 µM |
| CN(C)c1nc(CO[C@@H]2[C@H](O)[C@@H](O)[C@@H](OCc3csc(N(C)C)n3)[C@@H](Cc3ccccc3)S(=O)(=O)[C@@H]2Cc2ccccc2)cs1 [125/14] | < 2 µM | – | – |
| O=[N+]([O-])c1ccc(OC2C(O)C(O)C(Oc3ccc([N+](=O)[O-])cc3)C(Cc3ccccc3)S(=O)(=O)C2Cc2ccccc2)cc1 (centres unmarked) [125/17] | – | – | IC50 [2]: < 2 µM; IC50 [1]: < 2 µM |
| Cc1ccc(OC2C(O)C(O)C(Oc3ccc(C)cn3)C(Cc3ccccc3)S(=O)(=O)C2Cc2ccccc2)nc1 (centres unmarked) [125/21] | 2 to 10 µM | – | – |
| O=[N+]([O-])c1ccc(OC2C(O)C(O)C(Oc3ccc([N+](=O)[O-])c(C(F)(F)F)c3)C(Cc3ccccc3)S(=O)(=O)C2Cc2ccccc2)cc1C(F)(F)F (centres unmarked) [125/27] | – | – | IC50 [1]: < 2 µM |
| Nc1ccc(OC2C(O)C(O)C(Oc3ccc(N)c(C(F)(F)F)c3)C(Cc3ccccc3)S(=O)(=O)C2Cc2ccccc2)cc1C(F)(F)F (centres unmarked) [125/28] | < 2 µM | < 2 µM | – |
| Cc1ccnc(O[C@@H]2[C@H](O)[C@@H](O)[C@@H](Oc3cc(C)ccn3)[C@@H](Cc3ccccc3)S(=O)(=O)[C@@H]2Cc2ccccc2)c1 [128/35] | 10 to 50 µM | – | – |

More lines, main results first:

| IC50 [1, 3] | IC50 [2, 4] | SMILES | further results |
| --- | --- | --- | --- |
| 2 to 10 µM | – | [O-][S+]1CC(OCc2ccccc2)C(O)C(O)C(OCc2ccccc2)C1Cc1ccccc1 (centres unmarked) [107/3] | – |
| 2 to 10 µM | 10 to 50 µM | [O-][S+]1CC(OCc2ccccc2)C(O)C(O)C(OCc2ccccc2)C1Cc1ccccc1 (centres unmarked) [107/4] | – |
| – | 2 to 10 µM | [O-][S+]1C(Cc2ccccc2)C(OCc2ccccc2)C(O)C(O)C(OCc2ccccc2)C1Cc1ccccc1 (centres unmarked) [108/17] | – |
| < 2 µM | 2 to 10 µM | O=[N+]([O-])c1cccc(CO[C@@H]2[C@H](O)[C@@H](O)C(NCc3ccccc3)C(Cc3ccccc3)S(=O)(=O)[C@@H]2Cc2ccccc2)c1 (some centres unmarked) [108/31] | – |
| < 2 µM | 2 to 10 µM | O=S1(=O)C(Cc2ccccc2)C(NCc2ccccc2)[C@H](O)[C@@H](O)[C@@H](OCc2ccccc2)[C@H]1Cc1ccccc1 (some centres unmarked) [108/34] | – |
| < 2 µM | 2 to 10 µM | O=S1(=O)C(Cc2ccccc2)C(NCCCc2ccccc2)[C@H](O)[C@@H](O)[C@@H](OCc2ccccc2)[C@H]1Cc1ccccc1 (some centres unmarked) [108/35] | – |
| < 2 µM | 2 to 10 µM | O=S1(=O)[C@H](Cc2ccccc2)[C@H](OCc2ccccn2)[C@H](O)[C@@H](O)[C@@H](OCc2ccccn2)[C@H]1Cc1ccccc1 [120/8] | – |
| < 2 µM | 2 to 10 µM | O=S1(=O)[C@H](Cc2ccccc2)[C@H](OCc2ccccn2)[C@H](O)[C@@H](O)[C@@H](OCc2cccc[n+]2[O-])[C@H]1Cc1ccccc1 [120/9] | – |
| – | < 2 µM | O=S1(=O)C(Cc2ccccc2)C(OCc2cncs2)C(O)C(O)C(OCc2cncs2)C1Cc1ccccc1 (centres unmarked) [120/25] | – |
| – | < 2 µM | Cc1cccc(COC2C(O)C(O)C(OCc3cccc(C)c3)C(Cc3ccccc3)S(=O)(=O)C2Cc2ccccc2)c1 (centres unmarked) [120/31] | – |
| – | < 2 µM | COc1cccc(COC2C(O)C(O)C(OCc3cccc(OC)c3)C(Cc3ccccc3)S(=O)(=O)C2Cc2ccccc2)c1 (centres unmarked) [120/34] | – |
| – | < 2 µM | Nc1cccc(COC2C(O)C(O)C(OCc3cccc(N)c3)C(Cc3ccccc3)S(=O)(=O)C2Cc2ccccc2)c1 (centres unmarked) [120/46] | – |
| 10 to 50 µM | – | Cc1cccc(O[C@@H]2[C@H](O)[C@@H](O)[C@@H](Oc3cccc(C)n3)[C@@H](Cc3ccccc3)S(=O)(=O)[C@@H]2Cc2ccccc2)n1 [128/31] | – |
